# In PubChem BioAssay AID256 (DTP/NCI, 2004):
# Values joined by “and” are separate entries in the source; they are usually repeats but may differ in a detail not shown here. Identical values can stand only once. Inconclusive results and toxic doses are left out.
# Tested on: CD2F1 mice, L1210 leukemia ip, survival T/C
# Experiment: NCI In Vivo Anticancer Drug Screen. Data for tumor model L1210 Leukemia (intraperitoneal) in CD2F1 (CDF1) mice
# Conditions: higher = longer survival
# Outline: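 Vehicle-treated tumor-bearing mice served as controls (C) for compound-treated mice (T). Reported figure is T divided by C.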
# [1] = endpoint: mean survival time, dose: 12.5 mg/kg/injection, schedule: Q01DX005 (ip), vehicle: water
# [2] = endpoint: mean survival time, dose: 25.0 mg/kg/injection, schedule: Q01DX005 (ip), vehicle: water
# [3] = endpoint: mean survival time, dose: 50.0 mg/kg/injection, schedule: Q01DX005 (ip), vehicle: water
# [4] = endpoint: mean survival time, dose: 100.0 mg/kg/injection, schedule: Q01DX005 (ip), vehicle: water
# [5] = endpoint: mean survival time, dose: 25.0 mg/kg/injection, schedule: Q01DX009 (ip), vehicle: saline with Tween-80
# [6] = endpoint: mean survival time, dose: 100.0 mg/kg/injection, schedule: Q04DX003 (ip), vehicle: saline
# [7] = endpoint: mean survival time, dose: 50.0 mg/kg/injection, schedule: Q01DX009 (ip), vehicle: saline with Tween-80
# [8] = endpoint: mean survival time, dose: 100.0 mg/kg/injection, schedule: Q01DX009 (ip), vehicle: saline with Tween-80
# [9] = endpoint: mean survival time, dose: 200.0 mg/kg/injection, schedule: Q01DX009 (ip), vehicle: saline with Tween-80
# [10] = endpoint: mean survival time, dose: 400.0 mg/kg/injection, schedule: Q01DX009 (ip), vehicle: saline with Tween-80
# [11] = endpoint: mean survival time, dose: 100.0 mg/kg/injection, schedule: Q04DX003 (ip), vehicle: saline with Tween-80
# [12] = endpoint: mean survival time, dose: 200.0 mg/kg/injection, schedule: Q04DX003 (ip), vehicle: saline with Tween-80
# [13] = endpoint: mean survival time, dose: 400.0 mg/kg/injection, schedule: Q04DX003 (ip), vehicle: saline with Tween-80
compound,measurement,setting,value
CCCC(=O)Nc1ncnc2c1nc(NC(=O)CCC)n2C1OC2COP(=O)(O)OC2C1OC(=O)CCC (stereo not given),T/C,"endpoint: mean survival time, dose: 6.25 mg/kg/injection, schedule: Q01DX005 (ip), vehicle: water",97 % of control
same,T/C,[1],104 % of control
same,T/C,[2],93 % of control
same,T/C,[3],97 % of control
same,T/C,[4],93 % of control
[NH2-].[NH2-].[NH2-].[NH2-].[Pt+4],T/C,[5],92 % of control
same,T/C,[6],98 % of control
Cc1ccc(C(=O)C(=O)c2ccc(C)cc2C)c(C)c1,T/C,"endpoint: mean survival time, dose: 75.0 mg/kg/injection, schedule: Q01DX001 (ip), vehicle: other",94 % of control
same,T/C,"endpoint: mean survival time, dose: 150.0 mg/kg/injection, schedule: Q01DX001 (ip), vehicle: other",87 % of control
same,T/C,"endpoint: mean survival time, dose: 300.0 mg/kg/injection, schedule: Q01DX001 (ip), vehicle: other",94 % of control
Nc1nc2c(c(=O)[nH]1)CN(c1ccc(Cl)cc1)C2,T/C,"endpoint: mean survival time, dose: 75.0 mg/kg/injection, schedule: Q01DX001 (ip), vehicle: saline",98 % of control
same,T/C,"endpoint: mean survival time, dose: 150.0 mg/kg/injection, schedule: Q01DX001 (ip), vehicle: saline",104 % of control
same,T/C,"endpoint: mean survival time, dose: 300.0 mg/kg/injection, schedule: Q01DX001 (ip), vehicle: saline",93 % of control
CN(C)N=Nc1cc(C(F)(F)F)cc(C(F)(F)F)c1,T/C,[5],104 % of control
same,T/C,[7],101 % of control
same,T/C,[8],98 % of control
same,T/C,[9],95 % of control
same,T/C,[10],104 % of control
O=C1OC(c2ccccc2)(C2(c3ccccc3)OC(=O)c3ccccc32)c2ccccc21 (stereo not given),T/C,[11],89 % of control
O=C1C=C(O)c2ccccc2C1=O.[Ag],T/C,"endpoint: mean survival time, dose: 12.5 mg/kg/injection, schedule: Q01DX001 (ip), vehicle: saline with Tween-80",97 % of control
same,T/C,"endpoint: mean survival time, dose: 25.0 mg/kg/injection, schedule: Q01DX001 (ip), vehicle: saline with Tween-80",93 % of control
Nc1cc(S(=O)(=O)O)c2cccnc2c1O,T/C,[6],114 % of control
same,T/C,"endpoint: mean survival time, dose: 200.0 mg/kg/injection, schedule: Q04DX003 (ip), vehicle: saline",108 % of control
CS(=O)(=O)c1cnnc2ccccc12,T/C,[11],98 % of control
same,T/C,[12],93 % of control
same,T/C,[13],86 % of control
COc1ccc(NC(=O)Nc2c(Oc3ccc(Cl)cc3)ccc(Cl)c2S(=O)(=O)O)cc1Cl,T/C,"endpoint: mean survival time, dose: 50.0 mg/kg/injection, schedule: Q01DX009 (ip), vehicle: saline",98 % of control
same,T/C,"endpoint: mean survival time, dose: 100.0 mg/kg/injection, schedule: Q01DX009 (ip), vehicle: saline",87 % of control
same,T/C,[11],93 % of control
same,T/C,[12],91 % of control
Cc1ccc(C(=O)O)cc1,T/C,[11],101 % of control
same,T/C,[12],93 % of control
same,T/C,[13],97 % of control
CC(=O)c1c(O)c(C)c(O)c2c1OC1=CC(=O)C(C(C)=O)C(=O)C12C (stereo not given),T/C,"endpoint: mean survival time, dose: 25.0 mg/kg/injection, schedule: Q01DX009 (ip), vehicle: Klucel (hydroxypropylcellulose) (HPC)",93 % of control
same,T/C,"endpoint: mean survival time, dose: 50.0 mg/kg/injection, schedule: Q01DX009 (ip), vehicle: Klucel (hydroxypropylcellulose) (HPC)",93 % of control
same,T/C,"endpoint: mean survival time, dose: 100.0 mg/kg/injection, schedule: Q01DX009 (ip), vehicle: Klucel (hydroxypropylcellulose) (HPC)",96 % of control
NC(N)=Nc1ccc(C(=O)O)cc1,T/C,[11],100 % of control
same,T/C,[12],95 % of control
same,T/C,[13],88 % of control
O=C1CCCCCC2=NC12 (stereo not given),T/C,"endpoint: median survival time, dose: 6.25 mg/kg/injection, schedule: Q01DX009 (ip), vehicle: Klucel (hydroxypropylcellulose) (HPC)",97 % of control
same,T/C,"endpoint: median survival time, dose: 12.5 mg/kg/injection, schedule: Q01DX009 (ip), vehicle: Klucel (hydroxypropylcellulose) (HPC)",102 % of control
same,T/C,"endpoint: median survival time, dose: 25.0 mg/kg/injection, schedule: Q01DX009 (ip), vehicle: Klucel (hydroxypropylcellulose) (HPC)",105 % of control
same,T/C,"endpoint: median survival time, dose: 50.0 mg/kg/injection, schedule: Q01DX009 (ip), vehicle: Klucel (hydroxypropylcellulose) (HPC)",111 % of control
CCOP(=O)(OCC)c1ccccc1,T/C,"endpoint: mean survival time, dose: 100.0 mg/kg/injection, schedule: Q04DX002 (ip), vehicle: saline",96 % of control
same,T/C,"endpoint: mean survival time, dose: 200.0 mg/kg/injection, schedule: Q04DX002 (ip), vehicle: saline",96 % of control
same,T/C,"endpoint: mean survival time, dose: 400.0 mg/kg/injection, schedule: Q04DX002 (ip), vehicle: saline",112 % of control
NCC(=O)Nc1ccc(O)cc1,T/C,"endpoint: mean survival time, dose: 180.0 mg/kg/injection, schedule: Q04DX003 (ip), vehicle: saline",104 % of control
same,T/C,"endpoint: mean survival time, dose: 405.0 mg/kg/injection, schedule: Q04DX003 (ip), vehicle: saline",98 % of control
NC(=S)N/N=C/c1ccc(OC(=O)COc2ccccc2)cn1,T/C,"endpoint: mean survival time, dose: 88.0 mg/kg/injection, schedule: Q04DX003 (ip), vehicle: saline with Tween-80",123 % of control
same,T/C,"endpoint: mean survival time, dose: 100.0 mg/kg/injection, schedule: Q04DX002 (ip), vehicle: saline with Tween-80",118 % of control
same,T/C,"endpoint: mean survival time, dose: 200.0 mg/kg/injection, schedule: Q04DX002 (ip), vehicle: saline with Tween-80",122 % of control
same,T/C,[12],118 % of control
same,T/C,"endpoint: mean survival time, dose: 400.0 mg/kg/injection, schedule: Q04DX002 (ip), vehicle: saline with Tween-80",152 % of control and 155 % of control
same,T/C,"endpoint: mean survival time, dose: 800.0 mg/kg/injection, schedule: Q04DX002 (ip), vehicle: saline with Tween-80",174 % of control
Cc1cc2[nH]c(=O)[nH]c2cc1C,T/C,[7],103 % of control
same,T/C,[8],94 % of control
same,T/C,[9],102 % of control
[Cl][Pt+2][Cl].[NH-]c1ccc(F)c(Cl)c1.[NH-]c1ccc(F)c(Cl)c1,T/C,"endpoint: mean survival time, dose: 3.13 mg/kg/injection, schedule: Q04DX003 (ip), vehicle: distilled water + Tween-80",108 % of control
same,T/C,"endpoint: mean survival time, dose: 6.25 mg/kg/injection, schedule: Q04DX003 (ip), vehicle: distilled water + Tween-80",103 % of control
same,T/C,"endpoint: mean survival time, dose: 12.5 mg/kg/injection, schedule: Q04DX003 (ip), vehicle: distilled water + Tween-80",110 % of control
same,T/C,"endpoint: mean survival time, dose: 25.0 mg/kg/injection, schedule: Q04DX003 (ip), vehicle: distilled water + Tween-80",110 % of control
same,T/C,"endpoint: mean survival time, dose: 50.0 mg/kg/injection, schedule: Q04DX003 (ip), vehicle: distilled water + Tween-80",110 % of control
C[n+]1cccc2cccc(C(=O)O)c21,T/C,"endpoint: mean survival time, dose: 37.5 mg/kg/injection, schedule: Q01DX009 (ip), vehicle: saline with Tween-80",112 % of control
same,T/C,"endpoint: mean survival time, dose: 75.0 mg/kg/injection, schedule: Q01DX009 (ip), vehicle: saline with Tween-80",109 % of control
same,T/C,"endpoint: mean survival time, dose: 150.0 mg/kg/injection, schedule: Q01DX009 (ip), vehicle: saline with Tween-80",107 % of control
CNNCc1c[nH]c(=O)[nH]c1=O,T/C,"endpoint: mean survival time, dose: 25.0 mg/kg/injection, schedule: Q01DX009 (ip), vehicle: water",110 % of control
same,T/C,"endpoint: mean survival time, dose: 50.0 mg/kg/injection, schedule: Q01DX009 (ip), vehicle: water",102 % of control
same,T/C,"endpoint: mean survival time, dose: 100.0 mg/kg/injection, schedule: Q01DX009 (ip), vehicle: water",102 % of control
same,T/C,"endpoint: mean survival time, dose: 200.0 mg/kg/injection, schedule: Q01DX009 (ip), vehicle: water",93 % of control
same,T/C,"endpoint: mean survival time, dose: 400.0 mg/kg/injection, schedule: Q01DX009 (ip), vehicle: water",100 % of control
N=C1CCCS1,T/C,"endpoint: median survival time, dose: 25.0 mg/kg/injection, schedule: Q01DX009 (ip), vehicle: saline",112 % of control
same,T/C,"endpoint: median survival time, dose: 50.0 mg/kg/injection, schedule: Q01DX009 (ip), vehicle: saline",116 % of control
same,T/C,"endpoint: median survival time, dose: 100.0 mg/kg/injection, schedule: Q01DX009 (ip), vehicle: saline",122 % of control
CC(C#N)N(C)C (stereo not given),T/C,"endpoint: mean survival time, dose: 10.0 mg/kg/injection, schedule: Q04DX003 (ip), vehicle: saline",97 % of control
same,T/C,"endpoint: mean survival time, dose: 20.0 mg/kg/injection, schedule: Q04DX003 (ip), vehicle: saline",104 % of control
same,T/C,"endpoint: mean survival time, dose: 40.0 mg/kg/injection, schedule: Q04DX003 (ip), vehicle: saline",97 % of control
C/C(=N/O)c1ccc(O)cc1,T/C,[11],90 % of control
same,T/C,[12],100 % of control
same,T/C,[13],94 % of control
COc1cc(OC)cc(C(c2nccc3cc(OC)c(OC)cc23)C(O)(C(F)(F)F)C(F)(F)F)c1 (stereo not given),T/C,"endpoint: mean survival time, dose: 100.0 mg/kg/injection, schedule: Q01DX001 (ip), vehicle: saline with Tween-80",97 % of control
same,T/C,[8],90 % of control
same,T/C,"endpoint: mean survival time, dose: 200.0 mg/kg/injection, schedule: Q01DX001 (ip), vehicle: saline with Tween-80",93 % of control
same,T/C,[9],93 % of control
same,T/C,"endpoint: mean survival time, dose: 400.0 mg/kg/injection, schedule: Q01DX001 (ip), vehicle: saline with Tween-80",86 % of control
same,T/C,[10],89 % of control
CC(=O)Nc1cc(Cl)c2ncn(C3OC(CO)C(O)C3O)c2n1 (stereo not given),T/C,[1],102 % of control
same,T/C,[2],95 % of control
same,T/C,[3],102 % of control
same,T/C,[4],91 % of control
same,T/C,"endpoint: mean survival time, dose: 200.0 mg/kg/injection, schedule: Q01DX005 (ip), vehicle: water",101 % of control
